Measured values as given in patent US6414222B1, “Gene combinations for herbicide tolerance in corn” (Regents of the University of Minnesota, priority 1993, dated 2002).

What was measured:
[1] = test system: cell line 2167-9/2160-154 H-1; assay: Callus herbicide tolerance, line H-1; assay type: cell-based, maize; conditions: cell line H-1
Description: (§1) Tolerant cell line 2167-9/2160-154 S-2 (“S-2”) was characterized to evaluate: (1) the magnitude of sethoxydim tolerance; (2) cross-tolerance of haloxyfop; and (3) the biochemical basis for the tolerance. Callus tissue from S-2 that had been maintained on 10 μM sethoxydim was transferred to media containing up to 100 μM sethoxydim. One-half gram of S-2 tissue was plated on a 7 cm filter paper as a lawn overlaying 50 ml agar-solidified culture medium containing 0, 0.5, 1.0, 2.0, 5.0, 10.0, 50.0 and 100 μM sethoxydim, and cultured for two weeks. Control cell line 2167-9/2160-154 was plated similarly on medium containing the same levels of sethoxydim. The control cell line growth after two weeks was inhibited 50% at 1 μM sethoxydim.
(§2) The tolerant callus cultures were characterized to determine the magnitude of sethoxydim and haloxyfop tolerance. Callus tissue from these lines was evaluated in experiments as described above in the characterization of line 2167-9/2160-154 S-2.

[2] = test system: ACCase of cell line 2167-9/2160-154 H-2; assay: Herbicide inhibition of ACCase, line H-2; assay type: biochemical, maize; conditions: cell line H-2
Description: (§3) Maize chloroplasts, isolated as described above, were suspended in buffer C (0.1 M Tricine-KOH, pH 8.0; 0.3 M glycerol, and 1 mM DTT) and homogenized in a glass tissue homogenizer. The disrupted chloroplast fraction was centrifuged at 16,000 g for 15 minutes. The supernatant was desalted on a Sephadex G-25 column (1.5×5 cm equilibrated with 0.1 M Tricine-KOH, pH 8.0; and 0.3 M glycerol) and assayed directly. ACCase activity (B. J. Nikolau et al., Arch. Biochem. Biophys., 211, 605-612 (1981)) was assayed at 30° C. in a 0.2 ml volume which contained 1 mM ATP, 3 mM acetyl coenzyme A, 2.5 mM MgCl2, 50 mM KCl, 0.5 mM DTT, and 15 mM [^14C]NaHCO3 (0.17 mCi/mmol). Reactions were initiated by addition of acetyl coenzyme A and stopped by addition of 25 μl of 12 N HCl. Product formation was determined by the radioactivity found in an acid stable fraction by liquid scintillation spectrometry. Enzyme activity was linear for 15 minutes.
(§4) Acetyl Coenzyme A Carboxylase (ACCase) was extracted from cell lines S-1, H-1 and H-2 and assayed as described in detail for maize cell line S-2, above.

fatty acid synthetase = assay: [14C]malonyl-CoA incorporation into fatty acids, cell-free extracts from corn suspension cultures; assay type: biochemical, Black Mexican Sweet (BMS) corn
Description: Incorporation of [^14C]malonyl-Coenzyme A into fatty acids (P. B. Hoj et al., supra; and J. B. Ohlrogge et al., Proc. Natl. Acad. Sci. USA, 76, 1194-1198 (1979)) was assayed using cell-free preparations from BMS tissue culture. Cells harvested during logarithmic growth phase were frozen in liquid nitrogen, ground with a mortar and pestle, and thawed in a medium containing: 0.1 M HEPES-KOH, pH 7.5; 0.3 M glycerol, and 5 mM DTT (buffer:tissue, 2:1, v/w). The homogenate was centrifuged at 12,000 g for 20 minutes. The supernatant was filtered through miracloth and centrifuged (125,000 g) for 60 minutes and then filtered through miracloth and assayed. Assays were conducted at 25° C. in a 0.4 ml volume containing: 1.0 mM ATP, 0.32 mM NADPH, 0.38 mM NADH, 25 μM CoA, 10 μM acetyl-CoA, 25 μg acyl-carrier protein, and 12 μM malonyl-CoA (11.54 μCi/μmol). Reactions were initiated by addition of [^14C]malonyl CoA and stopped by addition of 0.4 ml 40% KOH. Label incorporation into fatty acids was determined as above. Chlorophyll (D. I. Arnon, Plant Physiol., 24, 1-15 (1949)) and protein (P. K. Smith et al., Anal. Biochem., 150, 76-85 (1985)) were determined as described therein.

[3] = test system: inbred wildtype control plants; assay: Allelism testcross experiments, susceptible controls; assay type: in vivo, maize (Zea mays L.)
Description: Foliar applications of the herbicides were made to greenhouse- or field-grown seedlings at the three- to five-leaf stage. Herbicides were applied in a spray volume of 187 l/ha that includes 2.3 l/ha crop oil concentrate to enhance uptake. Sethoxydim and haloxyfop were applied using commercial formulations (Poast from BASF Corp and Verdict from Dow Elanco, respectively). Visual observations were recorded 14-21 days after herbicide treatments.
All F1 combinations (no reciprocals) between S1, S2, S3, H1 and H2 homozygotes were made, and these F1s were test crossed to susceptible inbred lines. The testcross progeny were grown in the greenhouse and treated with the herbicides. In Experiment 1, progeny from testcrosses with each of the ten F1 combinations were treated with 0.05 kg/ha sethoxydim for combinations involving only S lines or with 0.009 kg/ha haloxyfop for combinations involving either of the H lines. In Experiment 2, a selected subset of the F1 combinations was tested that used testcross families that were separately derived from those used in Experiment 1. Testcross progeny of S lines were treated with 0.03 kg/ha sethoxydim, and H1 and H2 progeny were treated with 0.009 kg/ha haloxyfop. In each experiment, known susceptible and heterozygous plants were included as controls.

[4] = test system: ACCase of cell line 2167-9/2160-154 S-1; assay: Herbicide inhibition of ACCase, line S-1; assay type: biochemical, maize; conditions: cell line S-1
Description: as §3, §4

[5] = test system: ACCase of cell line 2167-9/2160-154 H-1; assay: Herbicide inhibition of ACCase, line H-1; assay type: biochemical, maize; conditions: cell line H-1
Description: as §3, §4

[6] = test system: cell line 2167-9/2160-154 S-1; assay: Callus herbicide tolerance, line S-1; assay type: cell-based, maize; conditions: cell line S-1
Description: as §1, §2

[7] = test system: cell line 2167-9/2160-154 H-2; assay: Callus herbicide tolerance, line H-2; assay type: cell-based, maize; conditions: cell line H-2
Description: as §1, §2

[8] = test system: acetyl-coenzyme A carboxylase (ACCase) (EC 6.4.1.2) in maize chloroplasts; assay: Acetyl-Coenzyme A Carboxylase (ACCase) activity of maize chloroplasts; assay type: biochemical
Description: as §3

| SMILES | Fold increase in herbicide concentration that results in a 50% reduction in growth vs unselected control cell line [1] [fold] | Fold increase in herbicide concentration that inhibits ACCase activity by 50% vs unselected parent cell line [2] [fold] | Fold increase in herbicide concentration that inhibits ACCase activity by 50% vs unselected parent cell line [4] [fold] | Fold increase in herbicide concentration that inhibits ACCase activity by 50% vs unselected parent cell line [5] [fold] | Fold increase in herbicide concentration that results in a 50% reduction in growth vs unselected control cell line [6] | Fold increase in herbicide concentration that results in a 50% reduction in growth vs unselected control cell line [7] [fold] | Effect on ACCase in maize chloroplasts [8] | further results |
| --- | --- | --- | --- | --- | --- | --- | --- | --- |
| CC(Oc1ccc(Oc2ncc(C(F)(F)F)cc2Cl)cc1)C(=O)O (stereo not shown) [Haloxyfop, 2-[4-[[3-chloro-5-(trifluoromethyl)-2-pyridinyl]oxy]phenoxy]-propanoic acid] | 61 | 0 | 3 | 7 | 4^1 fold | 4 | inhibit | Fold increase in herbicide concentration that results in a 50% reduction in growth vs unselected control cell line ([1]; listed as haloxyfop): ~60 fold; Fold increase in herbicide concentration that inhibits ACCase activity by 50% vs unselected parent cell line ([2]; listed as haloxyfop): no difference; Effect on [14C]malonyl-CoA incorporation into fatty acids (fatty acid synthetase activity) (fatty acid synthetase; haloxyfop 1 μM): did not inhibit; Response of wildtype control plants ([3]; 0.009 kg/ha haloxyfop): killed most, but not all; Fold increase in herbicide concentration that inhibits ACCase activity by 50% vs unselected parent cell line ([4]; listed as haloxyfop): more tolerant; Fold increase in herbicide concentration that inhibits ACCase activity by 50% vs unselected parent cell line ([5]; listed as haloxyfop): more tolerant; Fold increase in herbicide concentration that results in a 50% reduction in growth vs unselected control cell line ([6]; listed as haloxyfop): four-fold increase; Fold increase in herbicide concentration that results in a 50% reduction in growth vs unselected control cell line ([7]; listed as haloxyfop): four-fold increase |
| CCCC(=NOCC)C1=C(O)CC(CC(C)SCC)CC1=O (stereo not shown) [Sethoxydim, 2-[1-(ethoxyimino)-butyl]-5-[2-(ethylthio)propyl]-3-hydroxy-2-cyclohexen-1-one] | 0 | 0 | 4 | 0 | ~100 fold | 0 | inhibit | Fold increase in herbicide concentration that results in a 50% reduction in growth vs unselected control cell line ([1]; listed as sethoxydim): Neither haloxyfop selected line showed a significant degree of sethoxydim tolerance; Fold increase in herbicide concentration that inhibits ACCase activity by 50% vs unselected parent cell line ([2]; listed as sethoxydim): no difference; Effect on [14C]malonyl-CoA incorporation into fatty acids (fatty acid synthetase activity) (fatty acid synthetase; sethoxydim 10 μM): did not inhibit; Response of inbred wildtype control plants ([3]; 0.05 kg/ha (Experiment 1) or 0.03 kg/ha (Experiment 2) sethoxydim): all inbred wildtype plants died; Fold increase in herbicide concentration that inhibits ACCase activity by 50% vs unselected parent cell line ([4]; listed as sethoxydim): more tolerant; Fold increase in herbicide concentration that results in a 50% reduction in growth vs unselected control cell line ([7]; listed as sethoxydim): Neither haloxyfop selected line showed a significant degree of sethoxydim tolerance |
